For orientation: AC50 means the midpoint of the concentration-response curve, whichever way the signal moves. Low readings indicate activity at low concentration, high ones activity only at high concentration.

AC50 data for 15 compounds are collected here from ChEMBL document CHEMBL5291721, “A preclinical secondary pharmacology resource illuminates target-adverse drug reaction associations of marketed drugs” (Nat Commun, 2023).

The target of assay [1] is T1, B2 bradykinin receptor (Homo sapiens, UniProt P30411).
T1 sequence (P30411 whole entry): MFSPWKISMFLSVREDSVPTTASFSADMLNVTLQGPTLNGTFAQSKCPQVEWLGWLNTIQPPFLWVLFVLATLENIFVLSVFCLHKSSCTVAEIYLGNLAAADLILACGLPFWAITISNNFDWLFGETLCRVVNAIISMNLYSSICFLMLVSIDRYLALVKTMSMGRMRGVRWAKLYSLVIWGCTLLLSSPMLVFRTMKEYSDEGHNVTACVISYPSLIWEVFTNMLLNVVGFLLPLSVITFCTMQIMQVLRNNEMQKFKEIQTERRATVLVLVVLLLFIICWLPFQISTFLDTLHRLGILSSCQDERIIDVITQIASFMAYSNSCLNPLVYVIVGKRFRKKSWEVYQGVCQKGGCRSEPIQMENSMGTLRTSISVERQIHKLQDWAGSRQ

Assay [2] addresses Gamma-aminobutyric acid receptor subunit alpha-1 (Rattus norvegicus, UniProt P62813).
For assay [3], the target named is Growth hormone secretagogue receptor type 1 (Homo sapiens, UniProt Q92847).
Growth hormone secretagogue receptor type 1, sequence (Q92847 whole entry): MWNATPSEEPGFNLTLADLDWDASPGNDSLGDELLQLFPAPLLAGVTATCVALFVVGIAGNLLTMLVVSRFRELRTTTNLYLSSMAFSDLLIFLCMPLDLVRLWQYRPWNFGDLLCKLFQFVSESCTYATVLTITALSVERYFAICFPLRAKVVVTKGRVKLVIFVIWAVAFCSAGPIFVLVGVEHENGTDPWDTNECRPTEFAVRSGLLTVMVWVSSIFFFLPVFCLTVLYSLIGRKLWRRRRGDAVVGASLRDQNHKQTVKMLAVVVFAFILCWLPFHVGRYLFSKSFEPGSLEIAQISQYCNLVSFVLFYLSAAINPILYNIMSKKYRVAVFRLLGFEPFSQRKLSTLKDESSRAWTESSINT
Assay [4] has as its target Glutamate receptor ionotropic, NMDA 1 (Rattus norvegicus, UniProt P35439).
Assay [5] addresses T2, 5-hydroxytryptamine receptor 3A (Homo sapiens, UniProt P46098).
T2 sequence (P46098 whole entry): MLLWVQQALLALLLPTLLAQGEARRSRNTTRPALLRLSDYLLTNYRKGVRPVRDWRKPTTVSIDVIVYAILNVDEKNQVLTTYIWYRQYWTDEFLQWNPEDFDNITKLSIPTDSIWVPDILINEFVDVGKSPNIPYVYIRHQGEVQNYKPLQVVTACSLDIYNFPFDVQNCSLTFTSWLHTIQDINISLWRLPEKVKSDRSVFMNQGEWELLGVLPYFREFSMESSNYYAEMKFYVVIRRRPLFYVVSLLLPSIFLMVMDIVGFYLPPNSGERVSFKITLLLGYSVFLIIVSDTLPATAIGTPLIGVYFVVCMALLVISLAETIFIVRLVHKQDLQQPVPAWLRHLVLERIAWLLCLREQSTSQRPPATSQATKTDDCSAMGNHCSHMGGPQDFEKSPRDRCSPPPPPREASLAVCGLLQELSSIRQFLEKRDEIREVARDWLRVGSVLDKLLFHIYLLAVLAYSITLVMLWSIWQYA
It is filed as functional.

In assay [6] the target is T3, Neuropeptide Y receptor type 1 (Homo sapiens, UniProt P25929).
T3 sequence (P25929 whole entry): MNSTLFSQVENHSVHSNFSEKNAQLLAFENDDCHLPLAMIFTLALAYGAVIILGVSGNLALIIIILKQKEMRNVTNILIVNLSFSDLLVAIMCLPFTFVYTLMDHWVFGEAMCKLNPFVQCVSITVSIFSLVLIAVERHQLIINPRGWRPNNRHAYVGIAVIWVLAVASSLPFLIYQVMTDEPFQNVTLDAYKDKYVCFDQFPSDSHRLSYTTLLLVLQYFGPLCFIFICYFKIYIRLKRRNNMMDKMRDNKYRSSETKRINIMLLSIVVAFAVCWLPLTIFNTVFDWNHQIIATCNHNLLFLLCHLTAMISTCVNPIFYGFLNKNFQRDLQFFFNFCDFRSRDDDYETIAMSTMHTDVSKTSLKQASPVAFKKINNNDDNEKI

For assay [7], the target named is Delta-type opioid receptor (Homo sapiens, UniProt P41143).
Delta-type opioid receptor, sequence (P41143 whole entry): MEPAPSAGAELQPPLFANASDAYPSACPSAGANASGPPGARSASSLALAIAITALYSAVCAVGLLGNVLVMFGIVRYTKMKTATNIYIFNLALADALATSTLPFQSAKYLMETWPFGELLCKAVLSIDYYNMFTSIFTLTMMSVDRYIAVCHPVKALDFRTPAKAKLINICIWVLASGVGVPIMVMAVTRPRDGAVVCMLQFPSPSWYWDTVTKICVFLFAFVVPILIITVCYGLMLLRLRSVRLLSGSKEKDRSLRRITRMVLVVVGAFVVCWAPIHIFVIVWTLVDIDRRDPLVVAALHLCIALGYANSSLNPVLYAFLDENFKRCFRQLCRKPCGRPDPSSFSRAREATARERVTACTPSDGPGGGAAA
In assay [8] the target is 3',5'-cyclic-AMP phosphodiesterase 4D (Homo sapiens, UniProt Q08499). In kind it is functional.
3',5'-cyclic-AMP phosphodiesterase 4D, sequence (Q08499 whole entry): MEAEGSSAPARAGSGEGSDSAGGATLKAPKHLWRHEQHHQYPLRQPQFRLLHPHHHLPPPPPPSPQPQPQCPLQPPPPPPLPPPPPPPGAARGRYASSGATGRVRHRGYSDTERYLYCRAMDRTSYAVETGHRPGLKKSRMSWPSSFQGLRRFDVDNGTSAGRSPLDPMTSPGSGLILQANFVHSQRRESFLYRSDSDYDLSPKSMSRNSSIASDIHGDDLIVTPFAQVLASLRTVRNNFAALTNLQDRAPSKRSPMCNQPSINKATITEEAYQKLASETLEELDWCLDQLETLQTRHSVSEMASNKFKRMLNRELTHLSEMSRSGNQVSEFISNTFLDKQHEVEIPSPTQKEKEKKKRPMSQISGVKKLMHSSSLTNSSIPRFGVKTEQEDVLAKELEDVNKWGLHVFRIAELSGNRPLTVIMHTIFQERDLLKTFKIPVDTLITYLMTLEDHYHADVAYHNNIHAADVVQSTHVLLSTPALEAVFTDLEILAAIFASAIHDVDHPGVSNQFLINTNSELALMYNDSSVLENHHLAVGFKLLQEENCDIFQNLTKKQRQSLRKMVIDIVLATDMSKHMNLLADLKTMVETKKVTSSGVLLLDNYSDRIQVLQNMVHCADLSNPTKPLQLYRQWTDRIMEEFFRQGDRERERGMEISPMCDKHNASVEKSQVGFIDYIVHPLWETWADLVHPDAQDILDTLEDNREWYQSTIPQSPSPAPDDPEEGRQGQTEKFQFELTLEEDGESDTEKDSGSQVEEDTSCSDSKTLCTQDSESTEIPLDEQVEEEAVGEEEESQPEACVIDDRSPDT
Assay [9] addresses T4, Prostaglandin G/H synthase 1 (Rattus norvegicus, UniProt Q63921).
T4 sequence (Q63921 whole entry): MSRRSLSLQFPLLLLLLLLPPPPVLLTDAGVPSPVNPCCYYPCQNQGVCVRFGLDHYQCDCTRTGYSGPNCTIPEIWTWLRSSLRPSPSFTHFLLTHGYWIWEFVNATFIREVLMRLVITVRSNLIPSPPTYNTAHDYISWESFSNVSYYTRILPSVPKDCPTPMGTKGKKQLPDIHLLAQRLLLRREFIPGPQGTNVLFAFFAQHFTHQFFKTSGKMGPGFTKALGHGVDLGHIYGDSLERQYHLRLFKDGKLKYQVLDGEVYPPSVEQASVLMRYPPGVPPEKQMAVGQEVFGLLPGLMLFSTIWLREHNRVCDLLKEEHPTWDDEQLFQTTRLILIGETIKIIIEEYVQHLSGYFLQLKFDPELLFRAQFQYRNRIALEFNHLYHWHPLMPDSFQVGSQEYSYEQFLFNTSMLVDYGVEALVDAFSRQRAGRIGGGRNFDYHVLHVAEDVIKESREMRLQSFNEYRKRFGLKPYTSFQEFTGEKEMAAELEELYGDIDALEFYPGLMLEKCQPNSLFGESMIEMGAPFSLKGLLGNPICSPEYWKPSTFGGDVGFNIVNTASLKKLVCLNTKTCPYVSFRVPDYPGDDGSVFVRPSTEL
It is filed as functional.

Assay [10] deals with T5, Alpha-1A adrenergic receptor (Homo sapiens, UniProt P35348).
T5 sequence (P35348 whole entry): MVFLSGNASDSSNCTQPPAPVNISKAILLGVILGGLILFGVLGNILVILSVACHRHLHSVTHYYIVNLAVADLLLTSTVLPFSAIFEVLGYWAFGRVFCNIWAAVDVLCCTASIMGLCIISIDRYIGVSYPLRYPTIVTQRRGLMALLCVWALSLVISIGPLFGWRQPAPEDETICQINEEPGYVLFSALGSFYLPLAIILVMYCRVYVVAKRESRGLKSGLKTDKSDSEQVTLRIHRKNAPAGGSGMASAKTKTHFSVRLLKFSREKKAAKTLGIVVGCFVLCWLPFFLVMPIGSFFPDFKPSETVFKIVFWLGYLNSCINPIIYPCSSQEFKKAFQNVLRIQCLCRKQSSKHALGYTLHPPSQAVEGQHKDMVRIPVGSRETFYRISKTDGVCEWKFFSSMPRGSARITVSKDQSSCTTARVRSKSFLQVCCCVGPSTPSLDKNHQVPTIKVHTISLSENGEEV
In kind it is functional, cell-based.
Also: assay procedure not described here.

Gamma-aminobutyric acid receptor subunit alpha-1, sequence (P62813 whole entry): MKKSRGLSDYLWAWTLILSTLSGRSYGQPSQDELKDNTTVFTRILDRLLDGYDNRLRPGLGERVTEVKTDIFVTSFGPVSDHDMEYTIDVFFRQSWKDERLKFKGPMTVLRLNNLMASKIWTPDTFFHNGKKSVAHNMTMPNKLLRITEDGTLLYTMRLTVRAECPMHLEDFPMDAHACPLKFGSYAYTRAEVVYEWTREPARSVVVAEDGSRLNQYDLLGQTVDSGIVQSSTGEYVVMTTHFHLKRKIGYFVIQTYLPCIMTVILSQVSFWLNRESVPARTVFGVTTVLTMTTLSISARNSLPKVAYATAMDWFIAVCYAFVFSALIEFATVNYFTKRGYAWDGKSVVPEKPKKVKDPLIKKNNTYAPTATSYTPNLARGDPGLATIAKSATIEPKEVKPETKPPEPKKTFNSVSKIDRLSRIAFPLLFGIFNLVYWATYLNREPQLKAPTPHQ

For `O=C1C(O)=C([C@H]2CC[C@H](c3ccc(Cl)cc3)CC2)C(=O)c2ccccc21` [ATOVAQUONE], the AC50 in assay [1], in assay [2], in [3], in [4], in assay [5] and in assay [6] was > 30 µM in each case. Also, the AC50 in [7], in assay [8], in assay [9] and in [10] was > 30 µM each time.
Consider `COc1ccc(CCNCC(O)COc2cccc(C)c2)cc1OC` (stereo unspecified) [BEVANTOLOL], for which the half-maximal activity concentration (AC50) in assay [1] is > 10 µM; in [2] it was > 10 µM; in [3] it was > 10 µM; in assay [4], > 10 µM; in assay [5], > 30 µM; in [6], > 10 µM. Besides, the concentration at half-maximal activity (AC50) in [7] is > 30 µM; in assay [8], > 30 µM; in assay [9], > 10 µM; in assay [10], 12 µM.
For `Brc1c(NC2=NCCN2)ccc2nccnc12` [BRIMONIDINE], the half-maximal activity concentration (AC50) in assay [1], in assay [2], in assay [3], in [4], in assay [5] and in [6] was > 30 µM each time. Moreover, the AC50 in [7], in assay [8] and in assay [9] was > 30 µM in each case.
Consider `CC(CC1c2ccccc2CCc2ccccc21)CN(C)C` (stereo unspecified) [BUTRIPTYLINE], for which the AC50 in [2] was > 30 µM; in assay [4] it was > 30 µM; in assay [5], > 30 µM; in assay [8] it was > 30 µM; in assay [10], 15 µM.
Turning to `CC(C)(C)NCC(O)COc1cccc2c1CCC(=O)N2` (stereo unspecified) [CARTEOLOL], the concentration at half-maximal activity (AC50) in assay [1] was > 10 µM; in assay [2], > 10 µM; in assay [3], > 10 µM; in [4], > 10 µM; in assay [5], > 30 µM; in assay [6], > 10 µM. Further, the AC50 in [7] was > 30 µM; in assay [8] it was > 30 µM; in [9], > 10 µM; in assay [10] it was > 30 µM.
With `Nc1nc(Cl)nc2c1ncn2[C@H]1C[C@H](O)[C@@H](CO)O1` [CLADRIBINE], the concentration at half-maximal activity (AC50) in assay [1], in assay [2], in assay [3], in assay [4], in assay [5] and in [6] was > 30 µM each time. Also, the half-maximal activity concentration (AC50) is > 30 µM in assay [7], 0.97 µM in [8], > 30 µM in [9] and > 30 µM in assay [10].
In the case of `Clc1ccccc1C(c1ccccc1)(c1ccccc1)n1ccnc1` [CLOTRIMAZOLE], the AC50 is > 10 µM in [2]; > 10 µM in assay [4]; > 30 µM in assay [5]; > 30 µM in assay [7]; > 30 µM in assay [10].
With `COc1ccc2c3c1O[C@H]1[C@@H](O)CC[C@H]4[C@@H](C2)N(C)CC[C@@]341` [DIHYDROCODEINE], the concentration at half-maximal activity (AC50) in assay [2], in assay [4], in [5], in assay [7], in assay [8] and in assay [10] was > 30 µM each time.
As for `NC(=O)OCC(COC(N)=O)c1ccccc1` [FELBAMATE], the AC50 in assay [1] was > 10 µM; in [2], > 10 µM; in assay [3] it was > 10 µM; in [4], > 10 µM; in assay [5], > 30 µM; in assay [6], > 10 µM. Further, the AC50 in assay [7] is > 30 µM; in [8], > 30 µM; in assay [9] it was > 10 µM.
For `Fc1ccc(C(c2ccccc2)(c2ccccc2F)n2ccnc2)cc1` (stereo unspecified) [FLUTRIMAZOLE], the concentration at half-maximal activity (AC50) in assay [1], in assay [2], in [3], in [4], in [5] and in [6] was > 30 µM each time. Further, the half-maximal activity concentration (AC50) in assay [7], in assay [8], in assay [9] and in assay [10] was > 30 µM each time.
In the case of `Cc1c(OCC(F)(F)F)ccnc1C[S+]([O-])c1nc2ccccc2[nH]1` (stereo unspecified) [LANSOPRAZOLE], the AC50 in [1] is > 30 µM; in assay [2], > 10 µM; in [3], 9.67 µM; in assay [4], > 10 µM; in assay [5] it was 2.3 µM; in [6], 24.5 µM. Further, the concentration at half-maximal activity (AC50) is 8.3 µM in [7], > 10 µM in assay [8], > 30 µM in assay [9] and > 30 µM in assay [10].
For the compound `Cc1cc(C(C)(C)C)c(O)c(C)c1CC1=NCCN1` [OXYMETAZOLINE], the half-maximal activity concentration (AC50) in assay [4], in assay [5], in [7], in assay [8] and in [9] was > 30 µM in each case.
On to `C[C@H]1COc2c(C3(N)CC3)c(F)cc3c(=O)c(C(=O)O)cn1c23` [PAZUFLOXACIN], for which the AC50 in assay [1] is > 10 µM; in [2] it was > 10 µM; in assay [3], > 10 µM; in assay [4], > 10 µM; in assay [5] it was > 30 µM; in [6] it was > 10 µM. The half-maximal activity concentration (AC50) in assay [7], in [8] and in assay [9] was > 30 µM throughout.
Turning to `CC/C(=C(\c1ccccc1)c1ccc(OCCN(C)C)cc1)c1ccccc1` [TAMOXIFEN], the AC50 in [2] was > 10 µM; in assay [4] it was > 10 µM; in assay [5] it was > 30 µM; in assay [7], > 30 µM; in assay [10], > 30 µM.
On to `CC1(C)CCC(CN2CCN(c3ccc(C(=O)NS(=O)(=O)c4ccc(NCC5CCOCC5)c([N+](=O)[O-])c4)c(Oc4cnc5[nH]ccc5c4)c3)CC2)=C(c2ccc(Cl)cc2)C1` [VENETOCLAX], for which the half-maximal activity concentration (AC50) in assay [7], in [8] and in assay [9] was > 30 µM in each case.
